Measurements reported in US11548868B2, “Heterocyclic compounds, compositions comprising heterocyclic compound, and methods of use thereof” (JS INNOPHARM (SHANGHAI) LTD, priority 2017, dated 2023).

Key:
[1] = biological target: T1, TDO2 in A172 cancer cells (Homo sapiens, UniProt P48775); assay: TDO2 Cellular Assay (kynurenine production in A172 cancer cells); assay type: cell-based; conditions: L-Trp 1 mM, 24 hours incubation, kynurenine at 490 nm
T1 construct: endogenous in cells; host or cells: A172 cancer cells
Method in brief: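 Kynurenine output of A172 cells was read colorimetrically at 490 nm (Ehrlich reagent after TCA hydrolysis at 50 °C). Cells had 1 mM L-Trp plus compound at 0–25 μM in 0.25% DMSO for 24 h; IC50 values were fitted non-linearly from percent inhibition relative to vehicle.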

[2] = biological target: T2, IDO1 in Hela cancer cells (Homo sapiens, UniProt P14902); assay: IDO1 Cellular Assay (kynurenine production in IFN-γ stimulated Hela cancer cells); assay type: cell-based; conditions: human IFN-γ 50 ng/mL, 48 hours incubation, kynurenine at 490 nm
T2 construct: endogenous in cells; host or cells: Hela cancer cells stimulated with human IFN-γ
Protocol: Hela cancer cells (5×10^3 per well) with 85 μL DMEM medium containing 10% FBS were seeded in a 96-well plate and incubated at 95% humidity and 5% CO2 at 37° C. for 24 hours. human IFN-γ (10 μL, 50 ng/mL final concentration) and 5 μL serial dilutions of the test compounds were added into each well. The test compounds were dissolved in DMSO, and successively diluted with pH7.5 buffer (with final DMSO concentration of 0.25%) resulting in final concentrations of the test compounds ranging from 0 to 25 μM (0, 2.5, 7.5, 25, 75, 250, 750, 2500, 7500, & 25000 nM). After 48 hours of incubation, 70 uL of the supernatant per well was transferred to a new 96 well plate. Trichloroacetic acid (6.1 N, 8 μL) was mixed into each well and incubated at 50° C. for 30 min to hydrolyze N-formylkynurenine produced by IDO to kynurenine. The reaction mixture was then centrifuged for 10 min at 2500 RPM to remove sediments. 50 μL of the supernatant per well was transferred to another 96 well plate and mixed with 50 uL of 2% (w/v) p-dimethylaminobenzaldehyde in acetic acid. The yellow color derived from kynurenine was measured at 490 nm using a microplate reader. Percent inhibition of the test compounds was determined by measuring the decrease in kynurenine as compared to the control of DMSO vehicle, which was calculated by formula of (WC-WT)/WC, where WC is the mean absorbance of the control well minus blank well; WT is the mean absorbance of the test well minus the blank well. Data was analyzed by GraphPad Prism 5 and the IC50 values were obtained by non-linear regression.
The IC50 values of for Compounds disclosed are listed in Table 2, A′: ≤0.5 μM; B′: >0.5 μM and ≤1 μM; C′: >1.0 μM and ≤5 uM; and D′: >5 μM.

T2 sequence (P14902 whole entry): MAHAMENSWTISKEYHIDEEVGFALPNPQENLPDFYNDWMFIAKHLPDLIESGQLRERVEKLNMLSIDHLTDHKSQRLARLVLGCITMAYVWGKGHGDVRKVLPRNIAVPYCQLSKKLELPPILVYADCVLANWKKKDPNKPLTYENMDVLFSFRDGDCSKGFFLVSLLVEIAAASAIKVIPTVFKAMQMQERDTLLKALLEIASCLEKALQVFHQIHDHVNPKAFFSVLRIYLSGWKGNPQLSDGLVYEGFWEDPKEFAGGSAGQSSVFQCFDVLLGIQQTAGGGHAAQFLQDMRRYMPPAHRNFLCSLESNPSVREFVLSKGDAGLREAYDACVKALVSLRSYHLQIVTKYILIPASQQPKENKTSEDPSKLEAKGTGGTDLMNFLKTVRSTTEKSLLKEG
T1 sequence (P48775 whole entry): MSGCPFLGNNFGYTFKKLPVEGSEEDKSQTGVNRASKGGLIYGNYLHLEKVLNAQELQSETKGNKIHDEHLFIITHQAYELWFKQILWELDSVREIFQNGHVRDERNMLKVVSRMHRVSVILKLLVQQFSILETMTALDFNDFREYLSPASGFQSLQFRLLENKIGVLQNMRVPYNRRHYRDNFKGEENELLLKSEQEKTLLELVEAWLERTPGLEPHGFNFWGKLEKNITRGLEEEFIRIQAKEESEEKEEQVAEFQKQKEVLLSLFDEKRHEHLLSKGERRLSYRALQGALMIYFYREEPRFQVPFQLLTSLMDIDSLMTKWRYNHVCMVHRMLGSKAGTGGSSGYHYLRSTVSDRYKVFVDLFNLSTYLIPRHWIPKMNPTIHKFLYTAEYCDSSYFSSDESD

Row | Compound | IC50 [1] [nM] | IC50 [2] [nM]
1 | O=C(N[C@H]1[C@@H]2C[C@@](O)(c3cc(Cl)cc4[nH]ncc34)C[C@@H]21)c1ccnc2ccc(F)cc12 [Example 177, N-((1R,3r,5S,6r)-3-(6-chloro-1H-indazol-4-yl)-3-hydroxybicyclo[3.1.0]hexan-6-yl)-6-fluoroquinoline-4-carboxamide] | ≤ 500 | 500 to 1000
2 | CC(=O)N1C[C@@H]2CN(c3c(C4CC4)ccc4cncn34)C[C@@H]2C1(C)C (racemic) [Example 56, Racemic-1-((3aS,6aR)-5-(6-cyclopropylimidazo[1,5-a]pyridin-5-yl)-1,1-dimethylhexahydropyrrolo[3,4-c]pyrrol-2(1H)-yl)ethanone] | > 5000 | > 5000
3 | O=C(Cc1ccc(Cl)cc1)N1C[C@@H]2C[C@@](O)(c3cc(Cl)cc4[nH]ncc34)C[C@@H]2C1 [Example 175, 1-((3aR,5r,6aS)-5-(6-chloro-1H-indazol-4-yl)-5-hydroxyhexahydrocyclopenta[c]pyrrol-2(1H)-yl)-2-(4-chlorophenyl)ethanone] | ≤ 500 | 1000 to 5000
4 | O=S(=O)(NC1CC1)N[C@H]1[C@@H]2C[C@@](O)(c3cc(Cl)cc4[nH]ncc34)C[C@@H]21 [Example 160, N′-cyclopropyl-N-((1R,3r,5S,6r)-3-(6-chloro-1H-indazol-4-yl)-3-hydroxybicyclo[3.1.0]hexan-6-yl)sulfuric diamide] | ≤ 500 | 1000 to 5000
5 | O=C(N[C@H]1[C@@H]2C[C@@](O)(c3cc(Cl)cc4[nH]ncc34)C[C@@H]21)c1cccc(Cl)c1 [Example 124, 3-chloro-N-((1R,3r,5S,6r)-3-(6-chloro-1H-indazol-4-yl)-3-hydroxybicyclo[3.1.0]hexan-6-yl)benzamide] | ≤ 500 | ≤ 500
6 | N#Cc1ccc(S(=O)(=O)N2C[C@@H]3C[C@@](O)(c4cc(Cl)cc5[nH]ncc45)C[C@@H]3C2)cc1 [Example 39, 4-(((3aR,5r,6aS)-5-(6-chloro-1H-indazol-4-yl)-5-hydroxyhexahydrocyclopenta[c]pyrrol-2(1H)-yl)sulfonyl)benzonitrile] | ≤ 500 | > 5000
7 | COc1ccccc1-c1c[nH]cc1C(=O)N[C@H]1[C@@H]2C[C@@](O)(c3cc(Cl)cc4[nH]ncc34)C[C@@H]21 [Example 127, N-((1R,3r,5S,6r)-3-(6-chloro-1H-indazol-4-yl)-3-hydroxybicyclo[3.1.0]hexan-6-yl)-4-(2-methoxyphenyl)-1H-pyrrole-3-carboxamide] | ≤ 500 | > 5000
8 | O=C(N[C@H]1[C@@H]2C[C@@](O)(c3cc(Cl)cc4[nH]ncc34)C[C@@H]21)c1ccnc2ccccc12 [Example 169, N-((1R,3r,5S,6r)-3-(6-chloro-1H-indazol-4-yl)-3-hydroxybicyclo[3.1.0]hexan-6-yl)quinoline-4-carboxamide] | ≤ 500 | 1000 to 5000
9 | O=C(C1CC1)N1C[C@@H]2C[C@@](O)(c3cc(Cl)cc4[nH]ncc34)C[C@@H]2C1 [Example 38, ((3aR,5r,6aS)-5-(6-chloro-1H-indazol-4-yl)-5-hydroxyhexahydrocyclopenta[c]pyrrol-2(1H)-yl)(cyclopropyl)methanone] | ≤ 500 | > 5000
10 | O=C(N[C@H]1[C@@H]2C[C@@](O)(c3cc(Cl)cc4[nH]ncc34)C[C@@H]21)c1ccc(Cl)cc1 [Example 119, 4-chloro-N-((1R,3r,5S,6r)-3-(6-chloro-1H-indazol-4-yl)-3-hydroxybicyclo[3.1.0]hexan-6-yl)benzamide] | ≤ 500 | ≤ 500
11 | CS(=O)(=O)N1C[C@H]2CC(C(O)c3cc(Cl)cc4[nH]ncc34)C[C@H]2C1 (stereo partly drawn) [Example 105, (6-chloro-1H-indazol-4-yl)((3aR,6aS)-2-(methylsulfonyl)octahydrocyclopenta[c]pyrrol-5-yl)methanol] | ≤ 500 | > 5000
12 | CC(=O)N1C[C@@H]2CN(c3cc(Cl)cc4cncn34)C[C@@H]2C1(C)C (racemic) [Example 43, Racemic-1-((3aS,6aR)-5-(7-chloroimidazo[1,5-a]pyridin-5-yl)-1,1-dimethylhexahydropyrrolo[3,4-c]pyrrol-2(1H)-yl)ethanone] | > 5000 | > 5000
13 | O=C(N[C@H]1[C@@H]2C[C@@](O)(c3cc(Cl)cc4[nH]ncc34)C[C@@H]21)c1ccc(F)c(C(F)(F)F)c1 [Example 172, N-((1R,3r,5S,6r)-3-(6-chloro-1H-indazol-4-yl)-3-hydroxybicyclo[3.1.0]hexan-6-yl)-4-fluoro-3-(trifluoromethyl)benzamide] | ≤ 500 | ≤ 500
14 | O=C(C1CC1)N1C[C@@H]2C[C@@](O)(c3cc(Cl)cc4cn[nH]c34)C[C@@H]2C1 [Example 99, ((3aR,5r,6aS)-5-(5-chloro-1H-indazol-7-yl)-5-hydroxyhexahydrocyclopenta[c]pyrrol-2(1H)-yl)(cyclopropyl)methanone] | 1000 to 5000 | > 5000
15 | O=C(N[C@H]1[C@@H]2C[C@@](O)(c3cc(Cl)cc4[nH]ncc34)C[C@@H]21)c1cncc(Br)c1 [Example 170, 5-bromo-N-((1R,3r,5S,6r)-3-(6-chloro-1H-indazol-4-yl)-3-hydroxybicyclo[3.1.0]hexan-6-yl)nicotinamide] | ≤ 500 | ≤ 500
16 | O[C@@]1(c2cc(Cl)cc3[nH]ncc23)C[C@H]2CN(c3ccncc3)C[C@H]2C1 [Example 116, (3aR,5r,6aS)-5-(6-chloro-1H-indazol-4-yl)-2-(pyridin-4-yl)octahydrocyclopenta[c]pyrrol-5-ol] | ≤ 500 | > 5000
17 | O=C(Nc1ccc(Cl)cc1)N[C@H]1[C@@H]2C[C@@](O)(c3cc(Cl)cc4[nH]ncc34)C[C@@H]21 [Example 121, 1-((1R,3r,5S,6r)-3-(6-chloro-1H-indazol-4-yl)-3-hydroxybicyclo[3.1.0]hexan-6-yl)-3-(4-chlorophenyl)urea] | ≤ 500 | ≤ 500
18 | O=S(=O)(C1CCOCC1)N1C[C@@H]2C[C@@](O)(c3cc(Cl)cc4cn[nH]c34)C[C@@H]2C1 [Example 101, (3aR,5r,6aS)-5-(5-chloro-1H-indazol-7-yl)-2-((tetrahydro-2H-pyran-4-yl)sulfonyl)octahydrocyclopenta[c]pyrrol-5-ol] | 1000 to 5000 | > 5000
19 | O[C@@]1(c2cc(Cl)cc3cn[nH]c23)C[C@H]2C[C@H]2C1 [Example 118, (1R,3r,5S)-3-(5-chloro-1H-indazol-7-yl)bicyclo[3.1.0]hexan-3-ol] | 1000 to 5000 | > 5000
20 | CS(=O)(=O)N[C@H]1C[C@@H]2C[C@@](O)(c3cc(Cl)cc4[nH]ncc34)C[C@@H]2C1 [Example 3, N-((2r,3aR,5r,6aS)-5-(6-chloro-1H-indazol-4-yl)-5-hydroxyoctahydropentalen-2-yl)methanesulfonamide] | ≤ 500 | > 5000
21 | O=C(N[C@H]1[C@@H]2C[C@@](O)(c3cc(Cl)cc4[nH]ncc34)C[C@@H]21)c1ccc(F)c(F)c1 [Example 168, N-((1R,3r,5S,6r)-3-(6-chloro-1H-indazol-4-yl)-3-hydroxybicyclo[3.1.0]hexan-6-yl)-3,4-difluorobenzamide] | ≤ 500 | ≤ 500
22 | CC1(C)[C@H]2CN(c3c(C4CC4)ccc4cncn34)C[C@H]2CN1S(C)(=O)=O (racemic) [Example 55, Racemic-6-cyclopropyl-5-((3aR,6aS)-4,4-dimethyl-5-(methylsulfonyl)hexahydropyrrolo[3,4-c]pyrrol-2(1H)-yl)imidazo[1,5-a]pyridine] | > 5000 | > 5000
23 | Cn1cc(C(=O)N[C@H]2[C@@H]3C[C@@](O)(c4cc(Cl)cc5[nH]ncc45)C[C@@H]32)cn1 [Example 155, N-((1R,3r,5S,6r)-3-(6-chloro-1H-indazol-4-yl)-3-hydroxybicyclo[3.1.0]hexan-6-yl)-1-methyl-1H-pyrazole-4-carboxamide] | ≤ 500 | 1000 to 5000
24 | O=C(N[C@H]1[C@@H]2C[C@@](O)(c3cc(C(F)(F)F)cc4[nH]ncc34)C[C@@H]21)c1cccc(Cl)c1 [Example 163, 3-chloro-N-((1R,3r,5S,6r)-3-hydroxy-3-(6-(trifluoromethyl)-1H-indazol-4-yl)bicyclo[3.1.0]hexan-6-yl)benzamide] | ≤ 500 | ≤ 500
